The series in a line: in vivo. The conditions noted are these: mouse, po, 2 g/kg body weight.

Results on one molecule are retold here after US8691949B2, “Peptide having anti-diabetic activity and use thereof” (MG Pharma Inc., priority 2008, dated 2014).

Residues, ends and D or L forms follow the SMILES beside them.

Turning to `CC(C)C[C@H](NC(=O)[C@H](CCC(=O)O)NC(=O)[C@H](CO)NC(=O)[C@@H](N)CC(C)C)C(=O)O` [LSEL, Leu-Ser-Glu-Leu] (H-LSEL-OH), the LD50 (commonly the dose at which mortality reaches 50%) is > 2000 mg/kg.
